The values below come from US20150335579A1, “MULTILAYER TABLET CONTAINING TELMISARTAN AND HYDROCHLOROTHIAZIDE” (Sawai Pharmaceutical Co., Ltd., priority 2013, published 2015).

The data set is described as follows: Moisture absorbency of telmisartan and telmisartan meglumine salt. In kind it is physicochemical. The text has this: As mentioned above, it is known that the hydrolysis of hydrochlorothiazide is promoted by temperature and humidity.

As to `CCCc1nc2c(C)cc(-c3nc4ccccc4n3C)cc2n1Cc1ccc(-c2ccccc2C(=O)O)cc1.CNCC(O)C(O)C(O)C(O)CO` [telmisartan meglumine salt], the “moisture absorbency relative to telmisartan itself” value was “about 10 times”.
As to `CCCc1nc2c(C)cc(-c3nc4ccccc4n3C)cc2n1Cc1ccc(-c2ccccc2C(=O)O)cc1` [telmisartan], where the note is “result in words”, the moisture absorbency result is given as “relatively low”.
